Each molecule was assayed against HSD17B13 (Homo sapiens (Human), UniProt Q7Z5P4) (assay: HSD17B13 enzymatic inhibition assay (150 nM or 50 nM HSD17B13)). Conditions: 50 nM HSD17B13; read-out: Inhibition of 50 nM of HSD17B13 IC50.
Sequence of HSD17B13 (Q7Z5P4 other isoform, or with tags, fused parts or gaps): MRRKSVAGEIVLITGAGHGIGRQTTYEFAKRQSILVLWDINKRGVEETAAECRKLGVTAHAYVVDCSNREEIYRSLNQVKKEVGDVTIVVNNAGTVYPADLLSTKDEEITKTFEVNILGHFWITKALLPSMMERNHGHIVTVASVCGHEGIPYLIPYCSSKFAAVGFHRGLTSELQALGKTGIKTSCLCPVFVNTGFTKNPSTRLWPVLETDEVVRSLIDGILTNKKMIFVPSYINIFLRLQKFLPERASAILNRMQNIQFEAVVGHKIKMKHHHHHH
Type: biochemical
C=Cc1cc(C(=O)NC2c3ccc(C)cc3Oc3cccc(C)c32)c(=O)[nH]c1C(F)(F)F (stereo not shown) [Compound 168, N-(1,6-dimethyl-9H-xanthen-9-yl)-2-oxo-6-(trifluoromethyl)-5-vinyl-1,2-dihydropyridine-3-carboxamide] was tested, and the IC50 was 330 nM.
CCc1cc(C(=O)NC2c3ccc(Cl)cc3Oc3cccc(Cl)c32)c(=O)[nH]c1C(F)(F)F (stereo not shown) [Compound 169, N-(1,6-dichloro-9H-xanthen-9-yl)-5-ethyl-2-oxo-6-(trifluoromethyl)-1,2-dihydropyridine-3-carboxamide] was tested, and the IC50 was 780 nM.
C=Cc1cc(C(=O)NC2c3ccc(Cl)cc3Oc3cccc(Cl)c32)c(=O)[nH]c1C(F)(F)F (stereo not shown) [Compound 170, N-(1,6-dichloro-9H-xanthen-9-yl)-2-oxo-6-(trifluoromethyl)-5-vinyl-1,2-dihydropyridine-3-carboxamide] was tested, and the IC50 was 350 nM.
C=Cc1cc(C(=O)NC2c3ccc(Cl)cc3Oc3cc(Cl)ccc32)c(=O)[nH]c1C(F)(F)F [Compound 171, N-(3,6-dichloro-9H-xanthen-9-yl)-2-oxo-6-(trifluoromethyl)-5-vinyl-1,2-dihydropyridine-3-carboxamide] gave an IC50 of 100 nM.
In the case of CCc1cc(C(=O)NC2c3ccc(Cl)cc3Oc3cc(Cl)ccc32)c(=O)[nH]c1C(F)(F)F [Compound 172, N-(3,6-dichloro-9H-xanthen-9-yl)-5-ethyl-2-oxo-6-(trifluoromethyl)-1,2-dihydropyridine-3-carboxamide], the IC50 is reported as 140 nM.
With C=CCc1cc(C(=O)NC2c3ccc(Cl)cc3Oc3cc(Cl)ccc32)c(=O)[nH]c1C(F)(F)F [Compound 173, 5-allyl-N-(3,6-dichloro-9H-xanthen-9-yl)-2-oxo-6-(trifluoromethyl)-1,2-dihydropyridine-3-carboxamide] the IC50 was 30 nM.
C=CCc1cc(C(=O)NC2c3ccc(Cl)cc3Oc3cccc(Cl)c32)c(=O)[nH]c1C(F)(F)F (stereo not shown) [Compound 174, 5-allyl-N-(1,6-dichloro-9H-xanthen-9-yl)-2-oxo-6-(trifluoromethyl)-1,2-dihydropyridine-3-carboxamide] was tested, and the IC50 was 240 nM.
For Cc1ccc2c(c1)Oc1cccc(C)c1C2NC(=O)c1cc(-c2ccccc2)c(C(F)(F)F)[nH]c1=O (stereo not shown) [Compound 175, N-(1,6-dimethyl-9H-xanthen-9-yl)-2-oxo-5-phenyl-6-(trifluoromethyl)-1,2-dihydropyridine-3-carboxamide], the IC50 was 280 nM.
Work on CCCc1cc(C(=O)NC2c3ccc(Cl)cc3Oc3cccc(Cl)c32)c(=O)[nH]c1C(F)(F)F (stereo not shown) [Compound 179, N-(1,6-dichloro-9H-xanthen-9-yl)-2-oxo-5-propyl-6-(trifluoromethyl)-1,2-dihydropyridine-3-carboxamide] yielded an IC50 of 400 nM.
For C=CCc1cc(C(=O)NC2c3ccc(C)cc3Oc3cccc(C)c32)c(=O)[nH]c1C(F)(F)F (stereo not shown) [Compound 180, 5-allyl-N-(1,6-dimethyl-9H-xanthen-9-yl)-2-oxo-6-(trifluoromethyl)-1,2-dihydropyridine-3-carboxamide], the IC50 was 160 nM.
CCCc1cc(C(=O)NC2c3ccc(C)cc3Oc3cccc(C)c32)c(=O)[nH]c1C(F)(F)F (stereo not shown) [Compound 181, N-(1,6-dimethyl-9H-xanthen-9-yl)-2-oxo-5-propyl-6-(trifluoromethyl)-1,2-dihydropyridine-3-carboxamide] was tested, and the IC50 was 390 nM.
With Cc1ccc2c(c1)Oc1cccc(C)c1C2NC(=O)c1cc(CCc2ccccc2)c(C(F)(F)F)[nH]c1=O (stereo not shown) [Compound 184, N-(1,6-dimethyl-9H-xanthen-9-yl)-2-oxo-5-phenethyl-6-(trifluoromethyl)-1,2-dihydropyridine-3-carboxamide] the IC50 was 150 nM.
In the case of Cc1ccc2c(c1)Oc1cccc(C)c1C2NC(=O)c1cc(CO)c(C(F)(F)F)[nH]c1=O (stereo not shown) [Compound 185, N-(1,6-dimethyl-9H-xanthen-9-yl)-5-(hydroxymethyl)-2-oxo-6-(trifluoromethyl)-1,2-dihydropyridine-3-carboxamide], the IC50 is reported as 730 nM.
In the case of Cc1ccc2c(c1)Oc1cccc(C)c1C2NC(=O)c1cc(C2CCCCC2)c(C(F)(F)F)[nH]c1=O (stereo not shown) [Compound 186, 5-cyclohexyl-N-(1,6-dimethyl-9H-xanthen-9-yl)-2-oxo-6-(trifluoromethyl)-1,2-dihydropyridine-3-carboxamide], the IC50 is reported as 1830 nM.
Work on Cc1ccc2c(c1)Oc1cccc(C)c1C2NC(=O)c1cc(C2=CCCCC2)c(C(F)(F)F)[nH]c1=O (stereo not shown) [Compound 187, 5-(cyclohex-1-en-1-yl)-N-(1,6-dimethyl-9H-xanthen-9-yl)-2-oxo-6-(trifluoromethyl)-1,2-dihydropyridine-3-carboxamide] yielded an IC50 of 770 nM.
Molecule Cc1ccc2c(c1)Oc1cccc(C)c1C2NC(=O)c1cc(C2=CCOCC2)c(C(F)(F)F)[nH]c1=O (stereo not shown) [Compound 188, 5-(3,6-dihydro-2H-pyran-4-yl)-N-(1,6-dimethyl-9H-xanthen-9-yl)-2-oxo-6-(trifluoromethyl)-1,2-dihydropyridine-3-carboxamide] has an IC50 of 280 nM.
In the case of Cc1ccc2c(c1)Oc1cc(C)ccc1C2NC(=O)c1cc(Br)c(C(F)(F)F)[nH]c1=O [Compound 189, 5-bromo-N-(3,6-dimethyl-9H-xanthen-9-yl)-2-oxo-6-(trifluoromethyl)-1,2-dihydropyridine-3-carboxamide], the IC50 is reported as 70 nM.
Work on O=C(NC1c2ccc(Cl)cc2Oc2cccc(Cl)c21)c1cnc(C(F)(F)F)[nH]c1=O (stereo not shown) [Compound 191, N-(1,6-dichloro-9H-xanthen-9-yl)-6-oxo-2-(trifluoromethyl)-1,6-dihydropyrimidine-5-carboxamide] yielded an IC50 of 870 nM.
For O=C(NC1c2ccc(Cl)cc2Oc2cc(Cl)ccc21)c1cnc(C(F)(F)F)[nH]c1=O [Compound 192, N-(3,6-dichloro-9H-xanthen-9-yl)-6-oxo-2-(trifluoromethyl)-1,6-dihydropyrimidine-5-carboxamide], the IC50 was 230 nM.
Molecule Cc1ccc2c(c1)Oc1cccc(C)c1C2NC(=O)c1cnc(C(F)(F)F)[nH]c1=O (stereo not shown) [Compound 193, N-(1,6-dimethyl-9H-xanthen-9-yl)-6-oxo-2-(trifluoromethyl)-1,6-dihydropyrimidine-5-carboxamide] has an IC50 of 1020 nM.
In the case of Cc1cc(C(F)(F)F)[nH]c(=O)c1C(=O)NC1c2ccccc2Oc2ccccc21 [Compound 195, 4-methyl-2-oxo-6-(trifluoromethyl)-N-(9H-xanthen-9-yl)-1,2-dihydropyridine-3-carboxamide], the IC50 is reported as 3310 nM.
For Cc1cc(C(F)(F)F)[nH]c(=O)c1C(=O)NC1c2ccccc2Oc2cc(Cl)ccc21 (stereo not shown) [Compound 196, N-(3-chloro-9H-xanthen-9-yl)-4-methyl-2-oxo-6-(trifluoromethyl)-1,2-dihydropyridine-3-carboxamide], the IC50 was 630 nM.
COc1ccc2c(c1)Oc1ccccc1C2NC(=O)c1ccc(C(F)(F)F)[nH]c1=O (stereo not shown) [Compound 197, N-(3-methoxy-9H-xanthen-9-yl)-2-oxo-6-(trifluoromethyl)-1,2-dihydropyridine-3-carboxamide] showed an IC50 of 1130 nM.
In the case of Cc1ccc2c(c1)Oc1cccc(C)c1C2NC(=O)c1c(C)cc(C(F)(F)F)[nH]c1=O (stereo not shown) [Compound 199, N-(1,6-dimethyl-9H-xanthen-9-yl)-4-methyl-2-oxo-6-(trifluoromethyl)-1,2-dihydropyridine-3-carboxamide], the IC50 is reported as 5150 nM.
In the case of Cc1cc(C(F)(F)F)[nH]c(=O)c1C(=O)NC1c2ccc(Cl)cc2Oc2cccc(Cl)c21 (stereo not shown) [Compound 200, N-(1,6-dichloro-9H-xanthen-9-yl)-4-methyl-2-oxo-6-(trifluoromethyl)-1,2-dihydropyridine-3-carboxamide], the IC50 is reported as greater than 10000 nM.
